Data taken from US6875452B1, “Inhibitor and preservative formulation” (priority 1997, dated 2005).

Assays:
[1] = tested on: Listeria monocytogenes 11994; assay: Viable count of L. monocytogenes in TSB with trans-anethole, fenchone, estragole, methyl paraben and combinations (Experimental Procedure 2); type: cell-based; details: for inhibition of L. monocytogenes in words: 0.1%, over 48 hrs; for log10 of the mean count ± 1 SEM: 37° C., preservatives at 0.1%
Procedure: (§1) Listeria monocytogenes 11994 and Salmonella enteriditis 4444 were purchased from the National Collection Type Culture, Porton Down, Wiltshire, UK. Each was stored in the long term in glycerol at −20° C., in the medium term on Tryptone Soya Agar (TSA) slopes and in the short term on TSA plates. All agar and broth (Tryptone Soya Broth) was purchased from Oxoid-Unipath Limited, Basingstoke, UK.
(§2) Triplicate plates were prepared for each dilution and the mean count of three plates was determined. […] Each experiment was performed on three separate occasions.
(§3) Two-tailed paired student's t-test was used to analyse inhibition caused by a combination compared to the corresponding control. Differences were judged to be statistically significant when p<0.05.
(§4) This definition is also in agreement with Mims et al.
(§5) Corresponding controls were also prepared, thus 10 μl of each overnight culture was added to the appropriate broth only. All tubes were incubated at 37° C. 1 ml samples were removed from each test and control after vortexing at 0 hrs, 1 hr, 4 hrs, 8 hrs, 24 hrs and 48 hrs and serially diluted in 0.01M PBS. 100 μl from each dilution was placed on an agar plate and spread across the surface. Plates were incubated at 37° C. and colonies counted as colony forming units per ml (cfu/ml). As ethanol was used to prepare stock solutions of methyl paraben a diluent control was used where ethanol was added to each culture medium. […] Due to the limitation of the serial dilution technique it was not possible to count cfu less than 10/ml.
(§6) Furthermore to make valid comparison about the activity of each combination against each microbe it was necessary to use just one concentration of each component with the combination. […] In addition, methyl paraben cannot be used in food in excess of 0.1% [15].

[2] = tested on: Salmonella enteriditis 4444; assay: Viable count of S. enteriditis in TSB with trans-anethole, fenchone, estragole, methyl paraben and combinations (Experimental Procedure 2); type: cell-based; details: for inhibition of S. enteriditis in words: 0.1%, over the 48 hr period; for log10 of the mean count ± 1 SEM: 37° C., preservatives at 0.1%
Procedure: as §1, §2, §3, §4, §5, §6

[3] = literature [20,21]; cited from earlier work
[4] = tested on: Salmonella enteriditis 4444; assay: Viable count of S. enteriditis in TSB with plant oils, benzoic acid, methyl paraben and combinations (Experimental Procedure 1); type: cell-based; details: for log10 of the mean count: 37° C.; for inhibition of S. enteriditis in words: over the 48 hr period
Procedure: (§7) Listeria monocytogenes 11994 and Salmonella […] 4444 were purchased from the National Collection Type Culture, Porton Down, Wiltshire, UK. Each was stored in the long term in glycerol at -20° C., in the medium term on Tryptone Soya Agar (TSA) slopes and in the short term on TSA plates. All agar and broth (Tryptone Soya Broth) was purchased from Oxoid-Unipath Limited, Basingstoke, UK. […] Plates were incubated at 37° C. and colonies counted as colony forming units per ml (cfu/ml). […] Oils of fennel and […] used at 0.2% and whilst oil of basil was originally used for comparative purposes at 0.2% it was later used at 0.02%. […] Several factors were considered when choosing these concentrations. […] Triplicate plates were prepared for each dilution and the mean count of three plates was determined. […] Each experiment was performed on three separate occasions. It is the mean count from three separate experiments and the corresponding standard error of the mean which are shown in the results section. Two-tailed paired student's t-test was used to analyse inhibition caused by a combination compared to the corresponding control. Differences were judged to be statistically significant when p<0.05.

[5] = tested on: Listeria monocytogenes 11994; assay: Viable count of L. monocytogenes in TSB with plant oils, benzoic acid, methyl paraben and combinations (Experimental Procedure 1); type: cell-based; details: for log10 of the mean count: 37° C.; for inhibition of L. monocytogenes in words: over the 48 hr period
Procedure: as §7

mice = details: high doses, literature [22,23]; cited from earlier work
[6] = 0 hrs (starting count, same as control)

## CC12CCC(C1)C(C)(C)C2=O (stereo not shown) [Fenchone, fenchone]
[1]
  inhibition of L. monocytogenes in words: most inhibitory single component
[1]; 1 hr
  log10 of the mean count ± 1 SEM: 2.7 ± 0.2Δ log10 cfu/ml
[1]; 4 hrs
  log10 of the mean count ± 1 SEM: 1.9 ± 0.08Δ log10 cfu/ml
[1]; 8 hrs and above
  count (cells undetectable): < 10 cfu/ml
[1]; 8 hrs
  log10 of the mean count ± 1 SEM: <1.0Δ log10 cfu/ml
[1]; 24 hrs
  log10 of the mean count ± 1 SEM: <0.1Δ log10 cfu/ml
[1]; 48 hrs
  log10 of the mean count ± 1 SEM: <1.0Δ log10 cfu/ml
[2]
  inhibition of S. enteriditis in words: little or no inhibition
[2]; 1 hr
  log10 of the mean count ± 1 SEM: 5.8 ± 0.02 log10 cfu/ml
[2]; 4 hrs
  log10 of the mean count ± 1 SEM: 6.4 ± 0.04 log10 cfu/ml
[2]; 8 hrs
  log10 of the mean count ± 1 SEM: 6.9 ± 0.04Δ log10 cfu/ml
[2]; 24 hrs
  log10 of the mean count ± 1 SEM: 8.6 ± 0.09Δ log10 cfu/ml
[2]; 48 hrs
  log10 of the mean count ± 1 SEM: 8.5 ± 0.01Δ log10 cfu/ml
[3]
  toxicity in words: non-toxic

## O=C(O)c1ccccc1 [BA, benzoic acid]
[4]; [6]
  log10 of the mean count: 6.08 ± 0.03 log10 cfu/ml
[4]; 1 hr
  log10 of the mean count: 6.02 ± 0.04 log10 cfu/ml
[4]; 4 hrs
  log10 of the mean count: 6.46 ± 0.01 log10 cfu/ml
[4]; 8 hrs
  log10 of the mean count: 7.32 ± 0.08 log10 cfu/ml
[4]; 24 hrs
  log10 of the mean count: 8.67 ± 0.14 log10 cfu/ml
[4]; 48 hrs
  log10 of the mean count: 8.52 ± 0.03 log10 cfu/ml
[4]
  inhibition of S. enteriditis in words: little inhibition
[5]; [6]
  log10 of the mean count: 6.45 ± 0.02 log10 cfu/ml
[5]; 1 hr
  log10 of the mean count: 6.33 ± 0.11 log10 cfu/ml
[5]; 4 hrs
  log10 of the mean count: 7.22 ± 0.04 log10 cfu/ml
[5]; 8 hrs
  log10 of the mean count: 8.16 ± 0.06 log10 cfu/ml
[5]; 24 hrs
  log10 of the mean count: 9.09 ± 0.03 log10 cfu/ml
[5]; 48 hrs
  log10 of the mean count: 9.0 ± 0.06 log10 cfu/ml
[5]
  inhibition of L. monocytogenes in words: relatively weakly inhibitory

## COC(=O)c1ccc(O)cc1 [MP, methyl paraben]
[1]
  inhibition of L. monocytogenes in words: little or no inhibitory properties
[1]; 1 hr
  log10 of the mean count ± 1 SEM: 6.5 ± 0.01 log10 cfu/ml
[1]; 4 hrs
  log10 of the mean count ± 1 SEM: 6.9 ± 0.01 log10 cfu/ml
[1]; 8 hrs
  log10 of the mean count ± 1 SEM: 7.7 ± 0.01 log10 cfu/ml
[1]; 24 hrs
  log10 of the mean count ± 1 SEM: 9.3 ± 0.01 log10 cfu/ml
[1]; 48 hrs
  log10 of the mean count ± 1 SEM: 9.2 ± 0.01 log10 cfu/ml
[4]; [6]
  log10 of the mean count: 6.08 ± 0.03 log10 cfu/ml
[4]; 1 hr
  log10 of the mean count: 6.04 ± 0.05 log10 cfu/ml
[4]; 4 hrs
  log10 of the mean count: 6.32 ± 0.03 log10 cfu/ml
[4]; 8 hrs
  log10 of the mean count: 6.63 ± 0.03 log10 cfu/ml
[4]; 24 hrs
  log10 of the mean count: 8.36 ± 0.05 log10 cfu/ml
[4]; 48 hrs
  log10 of the mean count: 8.45 ± 0.11 log10 cfu/ml
[4]
  inhibition of S. enteriditis in words: little inhibition
[5]; [6]
  log10 of the mean count: 6.45 ± 0.02 log10 cfu/ml
[5]; 1 hr
  log10 of the mean count: 6.49 ± 0.01 log10 cfu/ml
[5]; 4 hrs
  log10 of the mean count: 7.02 ± 0.02 log10 cfu/ml
[5]; 8 hrs
  log10 of the mean count: 7.86 ± 0.05 log10 cfu/ml
[5]; 24 hrs
  log10 of the mean count: 9.27 ± 0.02 log10 cfu/ml
[5]; 48 hrs
  log10 of the mean count: 9.24 ± 0.02 log10 cfu/ml
[5]
  inhibition of L. monocytogenes in words: relatively weakly inhibitory
[2]
  inhibition of S. enteriditis in words: little or no inhibition
[2]; 1 hr
  log10 of the mean count ± 1 SEM: 6.0 ± 0.01 log10 cfu/ml
[2]; 4 hrs
  log10 of the mean count ± 1 SEM: 6.3 ± 0.01 log10 cfu/ml
[2]; 8 hrs
  log10 of the mean count ± 1 SEM: 6.6 ± 0.06Δ log10 cfu/ml
[2]; 24 hrs
  log10 of the mean count ± 1 SEM: 8.5 ± 0.04Δ log10 cfu/ml
[2]; 48 hrs
  log10 of the mean count ± 1 SEM: 8.6 ± 0.01Δ log10 cfu/ml

## C/C=C/c1ccc(OC)cc1 [Trans-anethole]
[1]
  inhibition of L. monocytogenes in words: little or no inhibitory properties
[1]; 1 hr
  log10 of the mean count ± 1 SEM: 6.1 ± 0.04 log10 cfu/ml
[1]; 4 hrs
  log10 of the mean count ± 1 SEM: 6.3 ± 0.1 log10 cfu/ml
[1]; 8 hrs
  log10 of the mean count ± 1 SEM: 6.7 ± 0.2 log10 cfu/ml
[1]; 24 hrs
  log10 of the mean count ± 1 SEM: 9.0 ± 0.1 log10 cfu/ml
[1]; 48 hrs
  log10 of the mean count ± 1 SEM: 9.0 ± 0.01 log10 cfu/ml
[3]
  toxicity in words: non-toxic

## C=CCc1ccc(OC)cc1 [Estragole, estragole (4-allylanisole)]
mice
  carcinogenicity in words: carcinogenic in high doses in mice
[1]; 1 hr
  log10 of the mean count ± 1 SEM: 5.9 ± 0.05 log10 cfu/ml
[1]; 4 hrs
  log10 of the mean count ± 1 SEM: 5.6 ± 0.07Δ log10 cfu/ml
[1]; 8 hrs
  log10 of the mean count ± 1 SEM: 5.5 ± 0.06Δ log10 cfu/ml
[1]; 24 hrs
  log10 of the mean count ± 1 SEM: 4.9 ± 0.08Δ log10 cfu/ml
[1]; 48 hrs
  log10 of the mean count ± 1 SEM: 4.7 ± 0.09Δ log10 cfu/ml
[1]; after 24 hrs
  inhibition of growth: more than 4 log10
[2]
  inhibition of S. enteriditis in words: two most single inhibitory preservatives
[2]; 1 hr
  log10 of the mean count ± 1 SEM: 2.2 ± 0.05Δ log10 cfu/ml
[2]; 4 hrs and 8 hrs
  growth inhibited by: more than 5.0 log10
[2]; 4 hrs
  log10 of the mean count ± 1 SEM: 1.6 ± 0.08Δ log10 cfu/ml
[2]; 8 hrs
  log10 of the mean count ± 1 SEM: 1.5 ± 0.08Δ log10 cfu/ml
[2]; 24 hrs
  log10 of the mean count ± 1 SEM: 4.3 ± 0.03Δ log10 cfu/ml
[2]; 48 hrs
  inhibition: 2.1 log10
  log10 of the mean count ± 1 SEM: 6.9 ± 0.03Δ log10 cfu/ml
